From patent US8063095B2, “IAP BIR domain binding compounds” (Pharmascience Inc., priority 2005, dated 2011)

How the values were obtained:
[1] = molecular target: T1, cIAP-2 bir3 domain (GST-HIAP1(cIAP-2) BIR3) (Homo sapiens, UniProt Q13489); experiment: Fluorescence polarization-based competition assay, cIAP-2; format: binding; conditions: Ki calculated from displacement of fluorescent probe; read-out: Fluorescent polarization (FP) assay cIAP-2
T1 construct: made in house; host or cells: E. coli DH5-alpha
Protocol: GST-HIAP1(cIAP-2) BIR3: HIAP1 coding sequence from amino acids 236-349, cloned into PGex4T3 via BamH1 and XhoI. The plasmid was transformed into E. coli DH5α for use in protein expression and purification.
(§1) A fluorescent peptide probe, Fmoc-Ala-Val-Pro-Phe-Tyr(t-Bu)-Leu-Pro-[…]-Gly-OH was prepared using standard Fmoc chemistry on 2-chlorotrityl chloride resin (Int. J. Pept. Prot. Res. 38:555-561, 1991). Cleavage from the resin was performed using 20% acetic acid in dichloromehane (DCM), which left the side chain still blocked. The C-terminal protected carboxylic acid was coupled to 4′-(aminomethy)fluorescein (Molecular Probes, A-1351; Eugene, Oreg.) using excess diisopropylcarbodiimide (DIC) in dimethylformamide (DMF) at room temperature and was purified by silica gel chromatography (10% methanol in DCM). The N-terminal Fmoc protecting group was removed using piperidine (20%) in DMF, and purified by silica gel chromatography (20% methanol in DCM, 0.5% HOAc). Finally, the t-butyl side chain protective groups were removed using 95% trifluoroacetic acid containing 2.5% water and 2.5% triisopropyl silane.
(§2) For all assays, the fluorescence and fluorescence-polarization was evaluated using a Tecan Polarion instrument with the excitation filter set at 485 nm and the emission filter set at 535 nm. For each assay, the concentration of the target protein was first establish by titration of the selected protein in order to produce a linear dose-response signal when incubated alone in the presence of the fluorescent probe. Upon establishing these conditions, the compounds potency (IC50) and selectivity, was assessed in the presence of a fix defined amount of target protein and fluorescent probe and a 10 point serial dilution of the selected compounds. For each IC50 curve, the assays were run as followed: 25 ul/well of diluted compound in 50 mM MES buffer pH 6.5 were added into a black 96 well plate then 25 ul/well of bovine serum albumin (BSA) at 0.5 mg/ml in 50 mM MES pH 6.5. Auto-fluorescence for each compound was first assessed by performing a reading of the compound/BSA solution alone. Then 25 ul of the fluorescein probe diluted into 50 mM MES containing 0.05 mg/ml BSA were added and a reading to detect quenching of fluorescein signal done. Finally 25 ul/well of the target or control protein (GST-BIRs) diluted at the appropriate concentration in 50 mM MES containing 0.05 mg/ml BSA were added and the fluorescence polarization evaluated.
(§3) For each assay the relative polarization-fluorescence units were plotted against the final concentrations of compound and the IC50 calculated using the Grad pad prism software and/or Cambridge soft. The ki value were derived from the calculated IC50 value as described above and according to the equation described in Nikolovska-Coleska, Z. (2004) Anal Biochem 332, 261-273.

[2] = test system: MDA-MB-231 (breast) cancer cells; experiment: Cell viability (MTT) assay, MDA cells; conditions: Homo sapiens, MDA-MB-231, 72 h, MTT based assay
Protocol: (§4) MDA-MD-231 (breast) and SKOV-3 (ovarian) cancer cells were cultured in RPMI1640 media supplemented with 10% FBS and 100 units/mL of Penicillin and Steptomycin.
(§5) Viability assays were done on a number of cells including MDA-MB-231, SKOV-3, H460, PC3, HCT-116, and SW480 cells. Cells were seeded in 96 well plates at a respective density of 5000 and 2000 cells per well and incubated at 37° C. in presence of 5% CO2 for 24 hours. Selected compounds were diluted into the media at various concentration ranging from 0.01 uM up to 100 uM. Diluted compounds were added onto the MDA-MB-231 cells. For the MDA-MB-231 SKOV3, H460, PC3, HCT-116, and SW480 cells, the compounds were added either alone or in presence of 1-3 ng/ml of TRAIL. After 72 hours cellular viability was evaluated by MTT based assays.

[3] = molecular target: T2, XIAP bir3 domain (GST-XIAP BIR3RING) (Homo sapiens, UniProt P98170); experiment: Fluorescence polarization-based competition assay, XIAP; format: binding; conditions: Ki calculated from displacement of fluorescent probe; read-out: Fluorescent polarization (FP) assay Xiap
T2 construct: made in house; host or cells: E. coli DH5-alpha
Protocol: GST-XIAP BIR3RING: XIAP coding sequence amino acids 246-497 cloned into PGEX2T1 via BamH1 and AVA I. The plasmid was transformed into E. coli DH5a for use in protein expression and purification.
as §1, §2, §3

[4] = molecular target: T3, cIAP-1 bir3 domain (GST-HIAP2 (cIAP-1) BIR3) (Homo sapiens, UniProt Q13490); experiment: Fluorescence polarization-based competition assay, cIAP-1; format: binding; conditions: Ki calculated from displacement of fluorescent probe; read-out: Fluorescent polarization (FP) assay cIAP-1
T3 construct: made in house; host or cells: E. coli DH5-alpha
Protocol: GST-HIAP2 (cIAP-1) BIR3: HIAP2 coding sequence from amino acids 251-363 cloned into PGex4T3 via BamH1 and XhoI. The plasmid was transformed into E. coli DH5α for use in protein expression and purification.
as §1, §2, §3

[5] = molecular target: T4, XIAP L-Bir2-Bir3 (GST-XIAP Linker Bir2Bir3RING fusion protein) (Homo sapiens, UniProt P98170); experiment: Caspase de-repression assay using cellular extracts (apoptosome), L-Bir2-Bir3 XIAP; format: biochemical; conditions: 293 cell S100 extract; effective concentration to achieve 50% of activation
T4 construct: made in house; host or cells: E. coli DH5-alpha
Protocol: GST-linker BIR2BIR3Ring: XIAP coding sequence from amino acids 93-497 cloned into PGex4T1 via BamH1 and XhoI. Amino acids 93-497 were amplified from full length XIAP in pGex4t3, using the primers: […] and GCTGCATGTGTGTCAGAGG, using standard PCR conditions. The PCR fragment was TA cloned into pCR-2.1 (invitrogen). Linker BIR2BIR3Ring was subcloned into pGex4T1 by BamHI/XhoI digestion. The plasmid was transformed into E. coli DH5α for use in protein expression and purification. […]
100 ug of 293 cell S100 extract and 0.25 uM-2 uM of GST-XIAP fusion protein (XIAP-Bir3RING, XIAP-Linker Bir2Bir3RING, or full-length XIAP) were co-incubated with serial dilutions of compound (40 uM-5 pM). Caspases present in the extracts were activated by adding 1 mM dATP, 0.1 mM ALLN, 133 ug Cytochrome C (final concentrations), and incubating at 37° C. for 25 minutes. All reactions and dilutions used S100 buffer (50 mM Pipes pH 7.0, 50 mM KCl, 0.5 mM EGTA pH 8.0, 2 mM MgCl2 supplemented with 1/1000 dilutions of 2 mg/ml Cytochalisin B, 2 mg/ml Chymotstatin, Leupeptin, Pepstatin, Antipain, 0.1M PMSF, 1M DTT). Final reaction volume was 30 ul. Caspase-3 activity was measured by overlaying 30 ul of a 0.4 mM DEVD-AMC solution. released AMC cleavage was measured in a TECAN spectrophotometer at 360 nm excitation and 444 nm emission, on a kinetic cycle of 1 hour with readings taken every 5 minutes. Caspase activity was calculated as Vo of AMC fluorescence/sec. Caspase de-repression by our compounds was compared to fully activated extract and activated extract repressed by the presence of XIAP fusion protein.

[6] = test system: SKOV-3 (ovarian) cancer cells; experiment: Cell viability (MTT) assay, SKOV3 cells; conditions: 72 hours, MTT based assay; compounds added either alone or in presence of 1-3 ng/ml of TRAIL
Protocol: as §4, §5

HCT-116 tumors = experiment: Combination anti-cancer therapy in vivo (HCT-116 tumors, with mitomycin-C); conditions: HCT-116 tumors in female nude mice
Protocol: Female nude mice received […] HCT-116 subdermally on the right flank. On day 26, when tumors were […], animals were assigned to groups using a balanced design based on tumor size. At that time mitomycin-C and Compound 23 treatment was initated. Mitomycin-C was administered ip at 1 mg/kg, Monday through Friday for two weeks. Compound 23 was given iv at 1 or 5 mg/kg five times per week for the duration of the experiment. Tumor measurements were taken twice weekly.

T1 sequence (Q13489 236-349): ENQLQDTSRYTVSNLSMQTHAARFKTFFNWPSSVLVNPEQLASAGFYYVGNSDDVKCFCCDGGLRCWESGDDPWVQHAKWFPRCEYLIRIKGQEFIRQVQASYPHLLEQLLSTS
T4 sequence (P98170 93-497): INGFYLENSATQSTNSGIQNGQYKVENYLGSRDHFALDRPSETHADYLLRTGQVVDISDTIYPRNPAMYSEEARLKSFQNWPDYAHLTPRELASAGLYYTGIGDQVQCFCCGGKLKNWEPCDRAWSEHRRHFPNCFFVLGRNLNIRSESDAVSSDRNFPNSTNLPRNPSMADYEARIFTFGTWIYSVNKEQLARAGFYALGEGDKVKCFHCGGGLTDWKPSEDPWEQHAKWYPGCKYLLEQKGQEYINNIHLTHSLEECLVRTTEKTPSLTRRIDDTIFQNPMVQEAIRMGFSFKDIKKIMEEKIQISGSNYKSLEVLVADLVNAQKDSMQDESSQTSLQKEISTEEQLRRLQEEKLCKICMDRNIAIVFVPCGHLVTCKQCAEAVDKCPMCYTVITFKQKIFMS
T3 sequence (Q13490 251-363): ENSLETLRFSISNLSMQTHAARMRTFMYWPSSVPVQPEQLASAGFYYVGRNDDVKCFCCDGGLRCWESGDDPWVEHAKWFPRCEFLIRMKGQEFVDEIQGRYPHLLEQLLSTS
T2 sequence (P98170 246-497): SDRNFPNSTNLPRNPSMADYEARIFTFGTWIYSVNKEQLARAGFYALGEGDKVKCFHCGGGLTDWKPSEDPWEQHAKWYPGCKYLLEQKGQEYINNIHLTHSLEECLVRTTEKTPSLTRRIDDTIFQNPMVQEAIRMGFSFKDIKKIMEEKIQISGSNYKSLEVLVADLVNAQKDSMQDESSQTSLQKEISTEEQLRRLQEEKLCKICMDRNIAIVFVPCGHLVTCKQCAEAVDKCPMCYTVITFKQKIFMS

| Ki [1] | EC50 [2] | Ki [3] | Ki [4] | IC50 [5] | EC50 [6] | SMILES | anti-tumor effect at 5 mg/kg compared to the 1 mg/kg dose (HCT-116 tumors; 5 mg/kg iv in combination with mitomycin-C ip 1 mg/kg) | anti-tumor effect in combination with mitomycin-C (HCT-116 tumors; iv at 1 or 5 mg/kg five times per week, mitomycin-C ip 1 mg/kg) |
| --- | --- | --- | --- | --- | --- | --- | --- | --- |
| ≤ 100 nM | < 100 nM | ≤ 100 nM | ≤ 5 nM | ≤ 500 nM | < 100 nM | CN[C@@H](C)C(=O)N[C@H](C(=O)N1CCC[C@H]1C(=O)N[C@@H]1CCCc2ccccc21)[C@@H](C)OCC#CC#CCO[C@H](C)[C@H](NC(=O)[C@H](C)NC)C(=O)N1CCC[C@H]1C(=O)N[C@@H]1CCCc2ccccc21 [Compound 23] | superior anti-tumor effects | increasing anti-tumor effect in combination with mitomycin-C with increasing dose |
| ≥ 100 nM | < 100 nM | ≤ 100 nM | ≥ 100 nM | ≤ 100 nM | < 100 nM | CN[C@@H](C)C(=O)N[C@H](C(=O)N1CCC[C@H]1CN(CCc1ccccc1)C(=O)C(F)(F)F)[C@@H](C)OCC#CC#CCO[C@H](C)[C@H](NC(=O)[C@H](C)NC)C(=O)N1CCC[C@H]1CN(CCc1ccccc1)C(=O)C(F)(F)F [Compound 1] | – | – |
| ≤ 5 nM | < 100 nM | ≤ 100 nM | ≤ 100 nM | ≤ 500 nM | – | CN[C@@H](C)C(=O)N[C@H](C(=O)N1CCC[C@H]1CN(CCc1ccccc1)C(=O)c1ccccc1)[C@@H](C)OCC#CC#CCO[C@H](C)[C@H](NC(=O)[C@H](C)NC)C(=O)N1CCC[C@H]1CN(CCc1ccccc1)C(=O)c1ccccc1 [Compound 3] | – | – |
